From ChEMBL document CHEMBL5291721, “A preclinical secondary pharmacology resource illuminates target-adverse drug reaction associations of marketed drugs” (Nat Commun, 2023)

Tests used:
[1] = target: Gamma-aminobutyric acid receptor subunit alpha-1 (Rattus norvegicus, UniProt P62813)
[2] = target: T1, Amine oxidase [flavin-containing] A (Homo sapiens, UniProt P21397); type: functional
T1 sequence (P21397 whole entry): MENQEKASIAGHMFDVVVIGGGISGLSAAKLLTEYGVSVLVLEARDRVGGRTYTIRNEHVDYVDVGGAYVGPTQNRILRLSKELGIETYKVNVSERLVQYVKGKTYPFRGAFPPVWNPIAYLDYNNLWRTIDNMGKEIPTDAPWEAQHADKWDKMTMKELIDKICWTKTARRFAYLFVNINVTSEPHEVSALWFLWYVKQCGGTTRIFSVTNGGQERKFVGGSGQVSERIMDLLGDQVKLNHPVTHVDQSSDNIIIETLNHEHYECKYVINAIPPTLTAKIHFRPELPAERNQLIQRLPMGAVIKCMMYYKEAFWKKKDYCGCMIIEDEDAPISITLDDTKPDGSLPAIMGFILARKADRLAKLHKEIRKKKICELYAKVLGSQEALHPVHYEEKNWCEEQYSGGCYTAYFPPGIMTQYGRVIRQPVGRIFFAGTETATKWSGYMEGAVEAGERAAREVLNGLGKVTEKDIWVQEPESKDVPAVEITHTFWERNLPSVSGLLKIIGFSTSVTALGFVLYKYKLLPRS

[3] = target: T2, Thromboxane A2 receptor (Homo sapiens, UniProt P21731)
T2 sequence (P21731 whole entry): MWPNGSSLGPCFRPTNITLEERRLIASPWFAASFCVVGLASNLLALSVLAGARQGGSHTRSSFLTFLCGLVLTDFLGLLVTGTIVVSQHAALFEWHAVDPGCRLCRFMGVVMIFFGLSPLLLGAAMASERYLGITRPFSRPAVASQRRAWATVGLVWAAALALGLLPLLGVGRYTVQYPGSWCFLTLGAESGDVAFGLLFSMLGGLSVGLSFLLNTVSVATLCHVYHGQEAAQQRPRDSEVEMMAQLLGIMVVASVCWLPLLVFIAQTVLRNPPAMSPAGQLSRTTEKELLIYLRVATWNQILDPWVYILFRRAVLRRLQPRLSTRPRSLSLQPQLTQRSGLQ

[4] = target: T3, Alpha-2B adrenergic receptor (Homo sapiens, UniProt P18089)
T3 sequence (P18089 whole entry): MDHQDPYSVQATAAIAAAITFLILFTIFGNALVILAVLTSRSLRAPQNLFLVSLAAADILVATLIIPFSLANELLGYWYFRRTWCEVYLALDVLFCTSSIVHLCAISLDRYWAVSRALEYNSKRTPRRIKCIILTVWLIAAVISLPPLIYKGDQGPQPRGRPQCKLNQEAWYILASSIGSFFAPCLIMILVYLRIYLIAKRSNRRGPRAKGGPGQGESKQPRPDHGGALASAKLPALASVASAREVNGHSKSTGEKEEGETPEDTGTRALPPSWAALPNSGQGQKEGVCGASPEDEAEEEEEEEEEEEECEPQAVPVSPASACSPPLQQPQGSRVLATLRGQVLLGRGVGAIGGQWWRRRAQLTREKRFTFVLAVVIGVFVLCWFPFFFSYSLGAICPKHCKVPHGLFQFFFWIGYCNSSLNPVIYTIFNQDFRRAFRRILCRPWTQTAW

[5] = target: 5-hydroxytryptamine receptor 2B (Homo sapiens, UniProt P41595); type: functional, cell-based
Sequence of 5-hydroxytryptamine receptor 2B (P41595 whole entry): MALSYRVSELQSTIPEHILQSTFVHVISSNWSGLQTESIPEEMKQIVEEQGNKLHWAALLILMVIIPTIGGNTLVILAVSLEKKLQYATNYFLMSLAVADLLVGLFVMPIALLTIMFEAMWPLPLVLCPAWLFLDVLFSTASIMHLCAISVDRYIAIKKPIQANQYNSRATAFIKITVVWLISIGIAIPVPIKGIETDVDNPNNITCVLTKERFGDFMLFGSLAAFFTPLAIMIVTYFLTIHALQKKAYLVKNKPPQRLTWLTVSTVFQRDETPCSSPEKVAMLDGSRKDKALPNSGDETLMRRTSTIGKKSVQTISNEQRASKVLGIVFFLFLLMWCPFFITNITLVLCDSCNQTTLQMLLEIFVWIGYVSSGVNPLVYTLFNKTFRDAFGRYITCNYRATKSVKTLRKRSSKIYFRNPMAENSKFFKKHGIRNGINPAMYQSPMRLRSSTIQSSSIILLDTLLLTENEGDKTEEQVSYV

[6] = target: T4, Prostaglandin G/H synthase 1 (Rattus norvegicus, UniProt Q63921); type: functional
T4 sequence (Q63921 whole entry): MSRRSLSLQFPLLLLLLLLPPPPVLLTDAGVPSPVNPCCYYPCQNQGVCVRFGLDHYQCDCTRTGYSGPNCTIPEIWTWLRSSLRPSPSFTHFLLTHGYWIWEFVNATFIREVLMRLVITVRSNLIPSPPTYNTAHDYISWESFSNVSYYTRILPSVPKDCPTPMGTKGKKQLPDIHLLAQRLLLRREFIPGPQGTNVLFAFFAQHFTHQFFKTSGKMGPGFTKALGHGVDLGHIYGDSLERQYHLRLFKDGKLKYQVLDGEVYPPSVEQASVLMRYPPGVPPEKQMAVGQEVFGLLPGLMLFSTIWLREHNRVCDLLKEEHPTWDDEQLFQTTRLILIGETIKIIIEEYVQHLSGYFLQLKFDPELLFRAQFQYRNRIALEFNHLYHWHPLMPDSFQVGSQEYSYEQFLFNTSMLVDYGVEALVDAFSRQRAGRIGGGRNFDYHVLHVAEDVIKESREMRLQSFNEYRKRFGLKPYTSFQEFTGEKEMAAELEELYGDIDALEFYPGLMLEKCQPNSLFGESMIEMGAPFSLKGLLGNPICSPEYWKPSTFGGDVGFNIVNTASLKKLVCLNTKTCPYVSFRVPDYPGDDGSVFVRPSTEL

[7] = target: Kappa-type opioid receptor (Homo sapiens, UniProt P41145)
Sequence of Kappa-type opioid receptor (P41145 whole entry): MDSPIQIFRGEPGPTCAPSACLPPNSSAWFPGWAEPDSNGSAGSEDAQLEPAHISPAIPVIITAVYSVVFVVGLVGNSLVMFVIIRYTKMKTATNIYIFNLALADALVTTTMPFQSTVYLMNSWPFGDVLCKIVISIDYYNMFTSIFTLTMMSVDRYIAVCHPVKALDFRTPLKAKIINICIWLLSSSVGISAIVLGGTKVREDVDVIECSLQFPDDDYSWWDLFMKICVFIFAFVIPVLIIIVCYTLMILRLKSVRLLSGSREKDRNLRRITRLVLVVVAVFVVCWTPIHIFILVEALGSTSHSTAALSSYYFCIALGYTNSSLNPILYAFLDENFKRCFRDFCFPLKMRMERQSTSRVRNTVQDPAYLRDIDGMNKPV

[8] = target: T5, 5-hydroxytryptamine receptor 2C (Homo sapiens, UniProt P28335)
T5 sequence (P28335 whole entry): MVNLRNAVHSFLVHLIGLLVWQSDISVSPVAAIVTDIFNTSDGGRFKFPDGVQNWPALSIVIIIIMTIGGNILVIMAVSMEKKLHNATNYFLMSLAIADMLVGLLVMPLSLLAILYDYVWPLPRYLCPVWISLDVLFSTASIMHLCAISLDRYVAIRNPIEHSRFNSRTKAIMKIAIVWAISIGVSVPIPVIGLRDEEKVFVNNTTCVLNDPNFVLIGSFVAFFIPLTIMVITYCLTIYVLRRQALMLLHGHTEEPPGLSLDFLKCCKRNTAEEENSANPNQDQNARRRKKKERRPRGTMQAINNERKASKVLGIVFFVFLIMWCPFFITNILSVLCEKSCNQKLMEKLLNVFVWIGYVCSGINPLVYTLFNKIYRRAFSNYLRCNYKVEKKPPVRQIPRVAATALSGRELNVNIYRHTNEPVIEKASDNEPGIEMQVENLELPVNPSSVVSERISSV
Further: assay procedure not described here.

Sequence of Gamma-aminobutyric acid receptor subunit alpha-1 (P62813 whole entry): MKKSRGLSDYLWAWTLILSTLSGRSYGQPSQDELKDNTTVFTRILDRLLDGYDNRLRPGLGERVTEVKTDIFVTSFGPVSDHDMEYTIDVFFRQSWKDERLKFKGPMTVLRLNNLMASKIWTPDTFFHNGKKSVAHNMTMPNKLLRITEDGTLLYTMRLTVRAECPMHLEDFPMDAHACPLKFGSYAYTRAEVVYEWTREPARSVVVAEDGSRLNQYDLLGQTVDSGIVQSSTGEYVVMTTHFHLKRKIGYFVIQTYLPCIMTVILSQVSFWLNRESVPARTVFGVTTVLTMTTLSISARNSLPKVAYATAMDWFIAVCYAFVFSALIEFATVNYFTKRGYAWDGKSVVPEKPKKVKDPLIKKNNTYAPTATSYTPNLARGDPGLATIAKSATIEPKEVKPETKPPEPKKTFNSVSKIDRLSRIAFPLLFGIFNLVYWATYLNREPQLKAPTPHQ

| Structure (SMILES) | AC50 [1] [µM] | AC50 [2] [µM] | AC50 [3] [µM] | AC50 [4] [µM] | AC50 [5] [µM] | AC50 [6] [µM] | AC50 [7] [µM] | AC50 [8] [µM] |
| --- | --- | --- | --- | --- | --- | --- | --- | --- |
| CCN(CC)C(=O)Nc1ccc(OCC(O)CNC(C)(C)C)c(C(C)=O)c1 (stereo unspecified) [CELIPROLOL] | > 30 | > 30 | > 30 | > 30 | > 30 | > 30 | > 30 | > 30 |
| CCN(CC)CCN1C(=O)CN=C(c2ccccc2F)c2cc(Cl)ccc21 [FLURAZEPAM] | > 10 | > 10 | > 30 | > 10 | > 10 | > 30 | 0.21 | > 30 |
| CC(=O)OCC(=O)[C@@]1(O)[C@H](C)C[C@H]2[C@@H]3CCC4=CC(=O)C=C[C@]4(C)[C@@]3(F)[C@@H](O)C[C@@]21C [DEXAMETHASONE ACETATE] | > 10 | > 10 | 16 | > 10 | > 10 | > 30 | > 10 | > 30 |
| O=C1CN=C(c2ccccn2)c2cc(Br)ccc2N1 [BROMAZEPAM] | > 10 | > 10 | > 10 | > 10 | > 10 | > 10 | > 10 | > 30 |
| COc1ccc2nc3cc(Cl)ccc3c(Nc3cc(CN4CCCC4)c(O)c(CN4CCCC4)c3)c2n1 [PYRONARIDINE] | > 30 | > 30 | > 30 | > 30 | > 30 | > 30 | 15 | > 30 |
| CCCCCC(=O)O[C@]1(C(C)=O)CC[C@H]2[C@@H]3CCC4=CC(=O)CC[C@]4(C)[C@H]3CC[C@@]21C [HYDROXYPROGESTERONE CAPROATE] | > 30 | > 30 | > 30 | > 30 | > 30 | > 30 | > 30 | > 30 |
| CC(=O)[C@@]1(O)CC[C@H]2[C@@H]3C=C(Cl)C4=CC(=O)[C@@H]5C[C@@H]5[C@]4(C)[C@H]3CC[C@@]21C [CYPROTERONE] | > 10 | > 10 | > 10 | > 10 | > 10 | > 10 | 5.32 | > 30 |
| C[N@+]1(CCF)[C@@H]2CC[C@H]1C[C@@H](OC(=O)C(O)(c1ccccc1)c1ccccc1)C2 | > 30 | > 30 | > 30 | > 30 | > 30 | > 10 | 26 | > 30 |
| COc1cc2c(cc1OC)C(CCc1ccc(Cl)cc1)N(C)CC2 (stereo unspecified) [METHOPHOLINE] | > 10 | 11 | > 30 | > 10 | > 10 | 0.77 | 1.2 | > 30 |
| CC(=O)SC[C@@H](C)C(=O)N1CCC[C@H]1C(=O)N[C@@H](Cc1ccccc1)C(=O)O | > 30 | > 30 | > 30 | > 30 | > 30 | > 30 | 21 | > 30 |
| CCOC(=O)O[C@]1(C(=O)OCCl)CC[C@H]2[C@@H]3CCC4=CC(=O)C=C[C@]4(C)[C@H]3[C@@H](O)C[C@@]21C [LOTEPREDNOL ETABONATE] | > 30 | > 30 | > 30 | > 30 | > 30 | > 30 | > 30 | > 30 |
| OCc1cc(C(O)CNCCCCCCOCCCCc2ccccc2)ccc1O (stereo unspecified) [SALMETEROL] | > 10 | > 10 | > 30 | 13 | 12 | > 30 | 11 | > 30 |
